Among the data in patent US20100179093A1, “Neoropeptide-2-Receptor (Y-2R) Agonists” (priority 2008, published 2010) are NPY release and EC50 values, retold here.

In general, EC50 refers to the concentration giving half of the maximal effect.

One experiment relates to hypothalamic slices. The note with it: hypothalamic slices in vitro; cited from earlier work.
In the next experiment the target is T1, Y1R (Homo sapiens, UniProt P25929).
T1 sequence (P25929 1-384): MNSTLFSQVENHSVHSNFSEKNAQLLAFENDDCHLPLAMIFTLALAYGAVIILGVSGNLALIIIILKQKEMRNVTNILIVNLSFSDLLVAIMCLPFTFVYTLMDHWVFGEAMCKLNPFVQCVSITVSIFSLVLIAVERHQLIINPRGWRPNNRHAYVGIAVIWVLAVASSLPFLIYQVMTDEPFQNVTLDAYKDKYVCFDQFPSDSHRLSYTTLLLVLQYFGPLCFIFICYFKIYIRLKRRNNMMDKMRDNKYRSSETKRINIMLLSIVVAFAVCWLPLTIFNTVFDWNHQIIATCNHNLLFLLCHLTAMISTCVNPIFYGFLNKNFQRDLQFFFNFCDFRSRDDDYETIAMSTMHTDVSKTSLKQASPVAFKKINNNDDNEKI
The experiment in a line: CaFlux Assay (FLIPR), Y1R. It counts as cell-based.

A further experiment concerns the target Y4R (Homo sapiens, UniProt P50391). The experiment can be described thus: CaFlux Assay (FLIPR), Y4R. It counts as cell-based.
The target in the next experiment is T2, Y5R (Homo sapiens, UniProt Q15761).
T2 sequence (Q15761 1-445): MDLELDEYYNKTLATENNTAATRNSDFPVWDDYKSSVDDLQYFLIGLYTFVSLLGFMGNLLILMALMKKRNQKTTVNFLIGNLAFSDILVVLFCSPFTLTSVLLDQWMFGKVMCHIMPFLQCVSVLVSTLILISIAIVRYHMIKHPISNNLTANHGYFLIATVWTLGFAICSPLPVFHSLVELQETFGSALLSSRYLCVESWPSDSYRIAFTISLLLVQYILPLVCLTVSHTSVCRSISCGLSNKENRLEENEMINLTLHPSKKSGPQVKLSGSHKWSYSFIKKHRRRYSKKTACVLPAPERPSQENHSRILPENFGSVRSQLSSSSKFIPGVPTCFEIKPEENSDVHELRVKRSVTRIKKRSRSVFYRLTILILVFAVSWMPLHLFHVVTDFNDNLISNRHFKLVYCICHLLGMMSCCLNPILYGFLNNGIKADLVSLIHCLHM
The experiment can be described thus: CaFlux Assay (FLIPR), Y5R. It counts as cell-based.

Experiment [1] concerns the target T3, hNPY2R (Homo sapiens, UniProt P49146).
T3 sequence (P49146 1-381): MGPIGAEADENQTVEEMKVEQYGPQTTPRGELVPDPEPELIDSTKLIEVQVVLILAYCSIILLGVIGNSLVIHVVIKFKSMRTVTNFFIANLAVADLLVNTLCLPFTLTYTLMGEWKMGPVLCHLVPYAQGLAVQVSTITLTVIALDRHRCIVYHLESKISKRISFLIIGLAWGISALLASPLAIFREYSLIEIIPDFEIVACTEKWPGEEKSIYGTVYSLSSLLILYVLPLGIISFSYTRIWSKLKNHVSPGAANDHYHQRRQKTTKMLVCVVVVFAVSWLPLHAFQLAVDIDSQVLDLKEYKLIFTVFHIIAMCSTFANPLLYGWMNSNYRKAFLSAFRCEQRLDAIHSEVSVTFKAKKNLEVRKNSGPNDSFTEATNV
The experiment in a line: cAMP Agonist Assay, HEK293/hNPY2R cells. Details: expressed in transfected cells; host or cells: HEK293/hNPY2R (G418 selection). It counts as cell-based.

The target of experiment [2] is T3, hNPY2R. The experiment can be described thus: CaFlux Assay (FLIPR), Y2R. Details: expressed in transfected cells; host or cells: HEK-293 stably expressing G protein chimera Gaqi9. The class given is cell-based.

Y4R, sequence (P50391 whole entry): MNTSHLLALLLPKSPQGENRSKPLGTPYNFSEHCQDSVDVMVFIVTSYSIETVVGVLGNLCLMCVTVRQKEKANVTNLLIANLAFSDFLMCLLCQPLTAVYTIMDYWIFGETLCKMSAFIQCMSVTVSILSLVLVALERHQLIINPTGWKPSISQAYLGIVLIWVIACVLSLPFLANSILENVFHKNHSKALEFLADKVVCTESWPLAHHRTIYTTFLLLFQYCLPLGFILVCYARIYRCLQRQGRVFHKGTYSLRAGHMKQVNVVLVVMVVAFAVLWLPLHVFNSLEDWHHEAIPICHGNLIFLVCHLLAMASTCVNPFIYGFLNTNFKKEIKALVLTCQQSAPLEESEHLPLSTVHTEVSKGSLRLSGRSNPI

Consider `N=C(N)NCCC[C@H](NC(=O)CC1(CC(=O)N2CCN(C3c4ccccc4NC(=O)c4ccccc43)CC2)CCCC1)C(=O)NCCn1c(=O)n(-c2ccccc2)n(-c2ccccc2)c1=O` (some centres unmarked) [BIIE0246], for which, in the experiment on hypothalamic slices, the NPY release entry was “increases NPY release”.

Take `CCCCCCCCCCCCCCCC(=O)NCCCCCC(=O)NCCCC[C@H](NC(=O)[C@@H](N)[C@@H](C)CC)C(=O)N1CCN(c2ccc3ncn(CC(=O)N[C@@H](CCCNC(=N)N)C(=O)N[C@@H](Cc4c[nH]cn4)C(=O)N[C@@H](Cc4ccc(O)cc4)C(=O)N[C@@H](CC(C)C)C(=O)N[C@@H](CC(N)=O)C(=O)N[C@@H](Cc4c[nH]c5ccccc45)C(=O)N[C@H](C(=O)N[C@H](C(=O)N[C@@H](CCCNC(=N)N)C(=O)N[C@@H](CCC(N)=O)C(=O)N(C)[C@@H](CCCNC(=N)N)C(=O)N[C@@H](Cc4ccc(O)cc4)C(N)=O)[C@@H](C)O)C(C)C)c(=O)c3c2)CC1` [Example 18]: the EC50 is above 5000 nM at Y1R; above 5000 nM on Y4R; 1190 nM on Y5R; 0.18 nM at hNPY2R [1]; 0.012 nM at hNPY2R [2].

In the case of `CC[C@H](C)[C@H](N)C(=O)N[C@@H](CCCCNC(=O)CC[C@H](NC(=O)CC[C@H](NC(=O)CCCCCCCCCCCCCCCBr)C(=O)O)C(=O)O)C(=O)N1CCN(c2ccc3ncn(CC(=O)N[C@@H](CCCNC(=N)N)C(=O)N[C@@H](Cc4c[nH]cn4)C(=O)N[C@@H](Cc4ccc(O)cc4)C(=O)N[C@@H](CC(C)C)C(=O)N[C@@H](CC(N)=O)C(=O)N[C@@H](Cc4c[nH]c5ccccc45)C(=O)N[C@H](C(=O)N[C@H](C(=O)N[C@@H](CCCNC(=N)N)C(=O)N[C@@H](CCC(N)=O)C(=O)N(C)[C@@H](CCCNC(=N)N)C(=O)N[C@@H](Cc4ccc(O)cc4)C(N)=O)[C@@H](C)O)C(C)C)c(=O)c3c2)CC1` [Example 27], the EC50 on Y1R was above 5000 nM; on Y4R, above 5000 nM; on Y5R it was 2540 nM; on hNPY2R [1] it was 0.4 nM; on hNPY2R [2] it was 0.23 nM.
